Earlier results in patent US20210402001A1, “Zinc Porters, and their Monoclonal Antibody Conjugates, for the Prevention and Treatment of COVID-19 (SARS-CoV-2), Other Infections, and Cancers” (priority 2020, published 2021).

How the values were obtained:
[1] = oxidized HDEFA5
trypsin = details: reduced state, five trypsin cleavage sites
blood platelets = details: healthy individuals, single oral dose of 220 mg
[2] = intranasal

Row | Compound | Zn dissociation constant [1] | degradation by gut trypsin (trypsin) | platelet activity (blood platelets) | loss of smell (anosmia) [2]
1 | ATCYCRTGRCATRESLSGVCEISGRLYRLCCR [HDEFA5] | picomolar | rapidly degraded | – | –
2 | O=S(=O)([O-])[O-].[Zn+2] [Zn sulfate] | – | – | hyperactive | profound acute anosmia
